According to US10111880B2, “Compounds for the treatment of diabetes and disease complications arising from same” (BEN-GURION UNIVERSITY OF THE NEGEV RESEARCH AND DEVELOPMENT …, priority 2013, dated 2018):
Entries after “also recorded” stand apart in the source; their conditions may differ.

Legend:
[1] = system: STZ-induced diabetic ICR mice; test: Blood glucose in STZ-induced diabetic ICR mice, long-term AGS treatment (5 months) with or without insulin; assay type: in vivo, mouse; design: Blood Glucose At 101 day / Blood Glucose At 111 day: unit: mg/dL; settings: for % reduction in blood glucose level / Blood glucose level Average: after 12 hours fast, day 142; for Blood glucose level Average: in mg/dL (unit assumed)
Procedure: [0182]7 week-old female ICR mice were intra-peritoneally injected with STZ (40 mg\Kg) for 5 consecutive days. Non-diabetic mice received citrate buffer (pH 4.3, cold), which served as the vehicle controls for this study. AGS-500 (6 mg\Kg) was then administered subcutaneously every 2 days, for 5 months, on the first day after STZ administration. A further control group, where DMSO was administered in accordance with this regimen, was included. Mice were divided into the following 6 groups (10 mice per group except STZ only-5 mice): • STZ only • STZ+DMSO • Citrate+DMSO 1% every day • STZ+AGS-499 (6 mg/kg) injected every day S.C • STZ+AGS-500 (6 mg/kg) injected every day S.C • STZ+AGS-500 (6 mg/kg) injected every other day S.C Mice were weighed and blood glucose levels were measured using a free style glucometer. Food consumption was also measured 24 hours prior to STZ injection. The concentration of STZ to be injected was calculated. STZ at 40 mg/kg was injected ip for 5 consecutive days. AGS treatment was administered one day following the last STZ injection. The establishment of diabetes was validated by the assessment of blood glucose levels performed every 3 days (at the beginning) and once a week after 59 days from the initiation of the experiment. Blood glucose levels over 200 mg/dl (measured 3 consecutive times) indicated a diabetic state. At 80 days from the initiation of the experiments each group was divided to 2 subgroups which received either insulin (4 units/kg) or acetic acid (0.015%) both in HEPES buffer (pH 7.45) injected every 48 hours. Mice were sacrificed after 5 months from the initiation of the experiments. Blood glucose levels were monitored every 3 days. Ten weeks after the beginning of this study, each group was divided into 2 sub-groups, one of each also received insulin (4 U\Kg) every 2 days, except for the non-diabetic sub-groups. Acetic acid (1%) served as the vehicle control.

pancreatic β-cells = test: Insulin immuno-histochemical and immuno-fluorescence staining of pancreas, β-cell mass in STZ-injected rats; assay type: in vivo, rat; settings: FIG. 5A, 5B, 5D
Procedure: Rats were treated as described in Example 1, pancreata were removed fixed in 4% formalin, and embedded in paraffin for immuno-histochemical and immuno-fluorescence staining using a specific anti-insulin antibody and serial histopathologic sections were prepared. […] Brown staining in FIG. 5A indicates insulin staining positivity by immunohistochemistry, and red staining (FIGS. 5B and 5C) indicates insulin staining positivity by immunofluorescence, blue cellular staining was effected with Dapi). The Cell density and density of insulin staining per area was measured using “Image J” software (FIGS. 5D and 5E). The results are presented as mean±S.E.; n=4. ***p<0.005.

[2] = system: islets isolated from ICR mice; test: γ-H2AX staining in isolated islet cells treated with STZ; assay type: cell-based, mouse; settings: STZ 1.5 mM; AGS-500 50 nM, 100 nM, 250 nM; 4 hours
Procedure: Islets were isolated from 8-10-week-old ICR mice. 30 islets in each group were treated with STZ (1.5 mM) and DMSO or AGS-500 in various concentrations (50 nM, 100 nM, 250 nM) for 4 hours. After 4 h incubation, the islets were enzymatically separated to single cells, cyto-spun and stained with γ-H2AX-specific antibody (A; representative picture—γ-H2AX (light grey), Dapi (dark grey)). Magnification: ×60.
The treatment of rats with AGS-compounds maintained a large β-cell mass in STZ-treated rats. In order to determine whether β-cell mass preservation was a result islet cell protection from STZ-induced DNA damage, γ-H2AX staining was assessed. Phosphorylated gamma H2AX (γ-H2AX) is essential for recognition and repair of DNA double strand breaks. H2AX histone becomes rapidly phosphorylated at its carboxyl terminus to form the so-called γ-H2AX at double strand break sites.
Islets were isolated from 8-10-week-old ICR mice and were treated with STZ (1.5 mM) and DMSO or AGS-500 in various concentrations (50 nM, 100 nM, 250 nM) for 4 hours. After a 4 h incubation, the islets were separated into single cells, cyto-spun, and stained with anti-γ-H2AX-specific antibody for the detection of DNA double strand breaks (FIG. 6).

[3] = system: STZ-induced diabetic ICR mice; test: Glucose tolerance test in STZ mice after short course (2 weeks) AGS treatment; assay type: in vivo, mouse
Procedure: Eight weeks-old female ICR mice were injected intraperitoneally (IP) with Streptozotocin (STZ), at a dose of 40 mg/Kg, for 5 consecutive days. The following day and onward, mice were administered the AGS compounds (499 or 500, as indicated), at a dose of 6 mg/Kg, either subcutaneously or orally, every other day. Blood glucose levels were monitored daily.
After the establishment of diabetes (i.e. three consecutive blood glucose measurements of >200 mg/dL), mouse groups were further sub-divided into 2 sub-groups, one of each received insulin (gradual administration of 0.5-6 units/Kg, over a period of 2 weeks) subcutaneously, every other day. Blood glucose levels were monitored daily.
Glucose tolerance tests were also performed as follows: After two weeks mice were fasted for 12 hours, then injected with D-glucose (1.5 g/Kg, IP) and blood glucose levels were examined at 0, 10, 20, 30, 60, 90 and 120 minutes, in order to evaluate pancreatic function.

[4] = system: insulin expressing beta islets; test: Immunofluorescence of pancreatic slices with anti-insulin antibody, insulin expressing beta islets in mice; assay type: in vivo, mouse
Procedure: The light grey (originally red) stains insulin producing cells, and the darker grey (originally blue) is for DAPI staining. Density of insulin staining per area was measured using “Image J” software (D-E). The results are mean±S.E.; n=4. ***p<0.005. Magnification: ×10.

## CC(c1cc(Br)c(O)c(Br)c1)(c1cc(Br)c(O)c(Br)c1)c1cc(Br)c(O)c(Br)c1 [AGS-500, 1,1,1-tris (4-hydroxy-3,5-dibromo-phenyl)-ethane]
[1]; AGS 500 every 48 hrs, without insulin
  blood glucose levels with time: best effect in reducing blood glucose levels with time
[1]; FIG. 2F
  circulating glucose levels, AGS-500 alone versus combined AGS-500 and insulin: greatest therapeutic effect
[1]; 6 mg/kg s.c. daily
  % reduction in blood glucose level: 20%
  Blood glucose level Average: 317.4
[1]; 6 mg/kg s.c. every 48 hrs
  % reduction in blood glucose level: 32%
  Blood glucose level Average: 270
[1]; no insulin, daily
  % reduction In blood Glucose 101 day: 15%
  Blood Glucose At 101 day: 600
  Blood Glucose At 111 day: 450
  reduction In blood Glucose 111 day: 25%
[1]; no insulin, every 48 hrs
  % reduction In blood Glucose 101 day: 43%
  Blood Glucose At 101 day: 400
  Blood Glucose At 111 day: 390
  reduction In blood Glucose 111 day: 35%
[1]; with insulin (4 units/kg every 48 hours), AGS daily
  Blood Glucose At 101 day: 460
[1]; with insulin, AGS daily
  % reduction In blood Glucose 101 day: 34%
  Blood Glucose At 111 day: 400
  reduction In blood Glucose 111 day: 34%
[1]; with insulin, AGS every 48 hrs
  % reduction In blood Glucose 101 day: 32%
  Blood Glucose At 101 day: 480
  Blood Glucose At 111 day: 400
  reduction In blood Glucose 111 day: 34%
Pancreatic β-cells
  β-cell mass in the pancreas of STZ-injected rats: significantly larger β-cell mass; also recorded: preserved β-cell Mass
[2]
  number of γ-H2AX-stained cells: dose-dependent decrease in the number of γ-H2AX-stained cells; also recorded: Reduced γ-H2AX Staining
[3]; 6 mg/Kg subcutaneously or orally every other day, FIG. 11
  mean blood glucose levels in a glucose tolerance test: reduced mean blood glucose levels
[3]; AGS subcutaneously (AGS500 also orally), FIG. 12
  effect of adding insulin on circulating glucose levels in a glucose tolerance test: adding insulin did not appreciably lower the circulating levels
[4]; immunofluorescence, FIG. 5C
  β-cell Mass in STZ-injected mice: preserved β-cell Mass
[4]; no insulin, daily
  No of insulin expressing beta islets/mouse: 5.6
  increase in Insulin expressing Beta islets: 215%
[4]; no insulin, every 48 hrs
  No of insulin expressing beta islets/mouse: 5
  increase in Insulin expressing Beta islets: 192%
[4]; with insulin, AGS daily
  No of insulin expressing beta islets/mouse: 2.5
[4]; with insulin, AGS every 48 hrs
  No of insulin expressing beta islets/mouse: 3
  increase in Insulin expressing Beta islets: 115%
